Source: US20240317827A1, “LINEAR PEPTIDES INHIBITING CK2-MEDIATED PHOSPHORYLATION AND COMPOSITIONS COMPRISING SAME” (CENTRO DE INGENIERÍA GENÉTICA Y BIOTECNOLOGÍA, priority 2021, published 2024)
Read-outs that look alike come from different tables or passages of the source. Where a SMILES comes first, the peptide text is derived from it. Bridges are numbered along the chain shown (N, C = ends). [ ]: non-standard residue; d: D form. βAla = NCCC(=O)O

Tests used:
[1] = system: NCI-H125 cell line (non-small cell lung cancer); assay: cell proliferation assay, NCI-H125 line; type: cell-based
Experimental: The evaluation of the antiproliferative activity of polypeptides F11P13-F11P21 (SEQ ID NO: 12-SEQ ID NO: 20) was performed on the NCI-H125 cell line. […] The antiproliferative effect of the CIGB-300 peptide has been widely characterized in this line (Cirigliano S. M., et al., 2017, Cancer Cell International, 17, 42), therefore, it was selected as a positive control. Tat peptide was used as a negative control. The polypeptides were evaluated at the concentrations of 25, 50, 100 and 200 μM. The cell proliferation assay was performed by a previously described procedure (Perera Y., et al., 2012, J. Pept. Sci, 18 (4):215-23).
The 24 polypeptides identified as SEQ ID NO: 21-SEQ ID NO: 44 maintained the ability to inhibit the phosphorylation of the E7 protein of HPV-16, mediated by CK2, since phosphorylation inhibition values between 60-85% were obtained. […] Evaluation of the antiproliferative activity of synthetic polypeptides generated by positional scanning of Trp (SEQ ID NO: 21-SEQ ID NO: 44) was performed on the NCI-H125 cell line. The test was performed by the procedure previously described. (Perera Y., et al., 2012, J. Pept. Sci, 18 (4): 215-23). Precursor polypeptides (F11P19, F11P20, F11P21) and peptide CIGB-300 were included as positive controls. The polypeptides were evaluated at the concentrations of 12.5; 25; fifty; 100 and 200 μM.
(§1) The evaluation of the antiproliferative activity of synthetic polypeptides A15P35, A15P36 and A15P37 (SEQ ID NO: 46-SEQ ID NO: 48) was performed on the NCI-H125, AsPC-1, PanC-1 (pancreatic carcinoma) and OCI-AML3 (acute myeloid leukemia-3) cell lines. The test was carried out according to the procedure previously described (Perera Y, et al., 2012, J. Pept. Sci, 18 (4):215-23). […] The polypeptides A15P35, A15P36 and A15P37 were able to produce a dose-dependent effect on the proliferation of NCI-H125 cells.
(§2) Antiproliferative assays were performed on the NCI-H125, Hep2C (laryngeal carcinoma) cell lines, and on two bladder cancer lines (MGH-U3 and MGH-U4). The test was carried out according to the procedure previously described (Perera Y., et al, 2012, Pept. Sci, 18 (4):215-23).

[2] = system: AsPC-1 cell line (pancreatic adenocarcinoma); type: cell-based
Experimental: The cell proliferation assay was performed following the procedure previously described (Perera Y, et al., 2012, J. Pept. Sci, 18 (4):215-23).
as §1

[3] = system: PanC-1 (pancreatic carcinoma) cell line; assay: cell proliferation assay, PanC-1 line; type: cell-based; settings: Table 7
Experimental: as §1

[4] = system: OCI-AML3 (acute myeloid leukemia-3) cell line; assay: cell proliferation assay, OCI-AML3 line; type: cell-based; settings: Table 7
Experimental: as §1

[5] = system: cell proliferation in vitro; settings: literature value; read-out: mean maximum inhibitory concentration (IC50), cell proliferation in vitro; cited from earlier work
[6] = molecular target: phosphoacceptor site of the CK2 enzyme in the E7 protein of HPV-16 (BIOT peptide, […]) (Human papillomavirus type 16, UniProt P03129); settings: peptide coupled to resin; BIOT peptide 120 μg/mL; streptavidin-alkaline phosphatase, BCIP
Experimental: For the identification of bioactive linear peptides that interact with the phosphoacceptor site of the CK2 enzyme, a combinatorial library of synthetic linear peptides named BCP-1 by type of “one-bead-one-compound” was screened, containing more than 16 million of different peptide sequences. […] Screening was performed with a biotinylated synthetic peptide, called BIOT, which contains the phosphoacceptor site of the CK2 enzyme in the E7 substrate of HPV-16 ([sequence], identified as SEQ ID NO: 63). The streptavidin-alkaline phosphatase conjugate was used as recognition molecule, and p-toluidine salt of 5-bromo-4-chloro-3-indolyl-phosphate (BCIP) was used as substrate for development. The blue color facilitates the visual differentiation of the beads containing bioactive sequences recognized by the BIOT peptide, compared to the bright light yellow color of the TentaGel resin at the BCP-1 library.
The BCP-1 library was placed in a polypropylene reactor with a vacuum filtration system and mechanical agitation. It was washed with purified water and saline phosphate buffer solution (PBS) pH 7.4; and blocked with 1% bovine serum albumin (BSA) in PBS pH 7.4 for one hour. Solvents and reagents were removed by vacuum filtration. The library was incubated with 80 mL of a BIOT peptide solution at 150 g/mL in 1% BSA in PBS pH 7.4, for 16 h at 4° C. […]

[7] = molecular target: T1, CK2-mediated phosphorylation of the HPV-16 E7 oncoprotein (Human papillomavirus type 16, UniProt P03129); assay: in vitro phosphorylation reaction, E7 oncoprotein (GST fusion) as substrate; type: biochemical; settings: procedure of Example 2
T1 construct: Glutathione S-Transferase (GST); made in house; host or cells: Escherichia coli
Experimental: The assay to measure the effect of these peptides on the CK2-mediated phosphorylation of the HPV-16 E7 oncoprotein, was based on an in vitro phosphorylation reaction, where the E7 oncoprotein of HPV-16 expressed in Escherichia coli was used as substratum. This oncoprotein was obtained as a fusion protein to Glutathione S-Transferase. The assay was performed according to the procedure previously described. (Perea S. E., et al., 2004, Cancer Res., 64: 7127-7129). The results are shown in FIG. 1, and indicate that the peptides identified as SEQ ID NO: 1-SEQ ID NO: 9 are capable of inhibiting CK2-mediated phosphorylation of the E7 protein of HPV-16.

[8] = system: Hep2C (laryngeal carcinoma) cell line; assay: cell proliferation assay, Hep2C line; type: cell-based; settings: Table 9
Experimental: as §2

[9] = system: MGH-U3 bladder cancer line; assay: cell proliferation assay, MGH-U3 line; type: cell-based, human; settings: Table 9
Experimental: as §2

[10] = system: MGH-U4 bladder cancer line; assay: cell proliferation assay, MGH-U4 line; type: cell-based; settings: Table 9
Experimental: as §2

[11] = Table 7, read-out: IC50 (μM) NCI-H125

T1 sequence (P03129 whole entry, the tested form may be a part): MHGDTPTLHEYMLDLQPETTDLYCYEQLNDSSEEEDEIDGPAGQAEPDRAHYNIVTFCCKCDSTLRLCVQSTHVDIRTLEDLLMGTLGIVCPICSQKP

Compound N=C(N)NCCC[C@H](NC(=O)CN)C(=O)N[C@@H](CCCCN)C(=O)N[C@@H](CCCCN)C(=O)N[C@@H](CCCNC(=N)N)C(=O)N[C@@H](CCCNC(=N)N)C(=O)N[C@@H](CCC(N)=O)C(=O)N[C@@H](CCCNC(=N)N)C(=O)N[C@@H](CCCNC(=N)N)C(=O)N[C@@H](CCCNC(=N)N)C(=O)N1CCC[C@H]1C(=O)N1CCC[C@H]1C(=O)N[C@@H](CCC(N)=O)C(=O)NCCC(=O)N[C@@H](Cc1c[nH]c2ccccc12)C(=O)N[C@@H](CCCCN)C(=O)N[C@@H](CCCNC(=N)N)C(=O)N[C@@H](CO)C(=O)N[C@@H](CCCNC(=N)N)C(=O)N[C@@H](Cc1ccc(O)cc1)C(=O)N[C@@H](Cc1c[nH]c2ccccc12)C(=O)N1CCC[C@H]1C(N)=O [A15P35, GRKKRRQRRRPPQ-βA-WKRSRYWP] (H-GRKKRRQRRRPPQ[βAla]WKRSRYWP-NH2; N-terminus and C-terminus assumed) has an IC50 [1, 11] of 106 µM, an IC50 ([2]; Table 7, read-out: IC50 (μM) AsPC-1) of 127 µM and an IC50 [3] of 145 µM. It also gave an IC50 [4] of 130 µM.

In the case of O=C(O)c1ccc2c(c1)nc(Nc1cccc(Cl)c1)c1ccncc12 [CX-4945], the IC50 [5] is given as 5.5 µM.

In the case of VAGFFLDP [P11], the “blue color development after enzymatic assay (interaction with the CK2 phosphoacceptor site)” value [6] is reported as “did not develop blue coloration”.

In the case of EQPAFHDP [P10], the “blue color development after enzymatic assay (interaction with the CK2 phosphoacceptor site)” value [6] is reported as “did not develop blue coloration”.

With CSCC[C@@H]1NC(=O)[C@H](Cc2c[nH]c3ccccc23)NC(=O)[C@@H](NC(=O)CCNC(=O)[C@H](CCC(N)=O)NC(=O)[C@@H]2CCCN2C(=O)[C@@H]2CCCN2C(=O)[C@H](CCCNC(=N)N)NC(=O)[C@H](CCCNC(=N)N)NC(=O)[C@H](CCCNC(=N)N)NC(=O)[C@H](CCC(N)=O)NC(=O)[C@H](CCCNC(=N)N)NC(=O)[C@H](CCCNC(=N)N)NC(=O)[C@H](CCCCN)NC(=O)[C@H](CCCCN)NC(=O)[C@H](CCCNC(=N)N)NC(=O)CN)CSSC[C@@H](C(N)=O)NC(=O)[C@H]([C@@H](C)O)NC(=O)CNC(=O)[C@H](CC(C)C)NC(=O)[C@H](Cc2c[nH]cn2)NC(=O)[C@H](CCCNC(=N)N)NC(=O)[C@@H]2CCCN2C(=O)[C@H](CO)NC1=O [CIGB-300, cycle (Cys15-Cys25) GRKKRRQRRRPPQ-βA-CWMSPRHLGTC, reference compound] (H-GRKKRRQRRRPPQ[βAla]CWMSPRHLGTC-NH2; disulfide 15-25; N-terminus and C-terminus assumed) the phosphorylation inhibition [7] was 87%, the “percentage of inhibition of proliferation” value ([1]; NCI-H125, evaluated at 25, 50, 100 and 200 μM, concentration not given) was 50% and the IC50 ([1]; NCI-H125, read-out: IC50 (dose-effect curves)) was 64 µM. The IC50 [1, 11] was 64 µM, the IC50 ([1]; Table 9, read-out: IC50 (μM) NCl-H125) was 64 µM and the IC50 ([2]; AsPC-1, read-out: IC50) was 102 µM. It also gave an IC50 [3] of 156 µM, an IC50 [4] of 63 µM and an IC50 [8] of 61 µM. It also gave an IC50 [9] of 327 µM and an IC50 [10] of 335 µM.
